Reference: the supplement of paper PMC11451515

Experiments:
Assay in all cases: AUC of viability dose-response curve (% viability x log10 dose units); higher = less sensitive
Conditions in all cases: 48 h
P12-Ichikawa = test system: P12-Ichikawa
Summary of the method: (§1)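 Viability of medium-adapted leukemia cells was measured by CellTiter-Glo One luminescence after 48 h at 37°C with library compounds in DMSO. Doses were 11 threefold steps from 47 μM to 0.79 nM, in 1536-well plates at 500 or 1000 cells/well. Signals were normalised per plate to DMSO and cell-free wells and fitted with a four-parameter log-logistic model on log10 dose. Area under the curve was integrated by trapezoidal rule, with curves exceeding full viability scaled and failed quality-control curves removed.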

NOMO1 = test system: NOMO1
Summary of the method: as §1

SEM cells = test system: SEM cells
Summary of the method: as §1

[1] = RPMI 5 mM glucose + 10% dialyzed FBS

## COc1cccc2cc(-c3nc(C4CCC(C(=O)O)CC4)n4ncnc(N)c34)[nH]c12 (stereo unspecified)
P12-Ichikawa; HPLM + 10% dialyzed FBS
  AUC of viability dose-response curve: 292
P12-Ichikawa; RPMI 5 mM glucose + 10% FBS
  AUC of viability dose-response curve: 307
P12-Ichikawa; [1]
  AUC of viability dose-response curve: 308
NOMO1; HPLM + 10% dialyzed FBS
  AUC of viability dose-response curve: 338
NOMO1; RPMI 5 mM glucose + 10% FBS
  AUC of viability dose-response curve: 358
NOMO1; [1]
  AUC of viability dose-response curve: 359
SEM cells; HPLM + 10% dialyzed FBS
  AUC of viability dose-response curve: 315
SEM cells; RPMI 5 mM glucose + 10% FBS
  AUC of viability dose-response curve: 327
SEM cells; [1]
  AUC of viability dose-response curve: 329

## C=C(C)[C@@H]1CC[C@]2(C(=O)O)CC[C@]3(C)[C@H](CC[C@@H]4[C@@]5(C)CC[C@H](O)C(C)(C)[C@@H]5CC[C@]43C)[C@@H]12
P12-Ichikawa; HPLM + 10% dialyzed FBS
  AUC of viability dose-response curve: 445
P12-Ichikawa; RPMI 5 mM glucose + 10% FBS
  AUC of viability dose-response curve: 461
P12-Ichikawa; [1]
  AUC of viability dose-response curve: 427
NOMO1; HPLM + 10% dialyzed FBS
  AUC of viability dose-response curve: 452
NOMO1; RPMI 5 mM glucose + 10% FBS
  AUC of viability dose-response curve: 473
NOMO1; [1]
  AUC of viability dose-response curve: 466
SEM cells; HPLM + 10% dialyzed FBS
  AUC of viability dose-response curve: 420
SEM cells; RPMI 5 mM glucose + 10% FBS
  AUC of viability dose-response curve: 410
SEM cells; [1]
  AUC of viability dose-response curve: 397

## Cc1c(CCOc2ccc(C(=O)O)cc2)c2cc(Cl)ccc2n1C(c1ccccc1)c1ccccc1
P12-Ichikawa; HPLM + 10% dialyzed FBS
  AUC of viability dose-response curve: 442
P12-Ichikawa; RPMI 5 mM glucose + 10% FBS
  AUC of viability dose-response curve: 468
P12-Ichikawa; [1]
  AUC of viability dose-response curve: 459
NOMO1; HPLM + 10% dialyzed FBS
  AUC of viability dose-response curve: 457
NOMO1; RPMI 5 mM glucose + 10% FBS
  AUC of viability dose-response curve: 442
NOMO1; [1]
  AUC of viability dose-response curve: 443
SEM cells; HPLM + 10% dialyzed FBS
  AUC of viability dose-response curve: 470
SEM cells; RPMI 5 mM glucose + 10% FBS
  AUC of viability dose-response curve: 450
SEM cells; [1]
  AUC of viability dose-response curve: 451

## CC1(C)Cc2c(-c3ccccc3)c(-c3ccc(Cl)cc3)c(CC(=O)O)n2C1
P12-Ichikawa; HPLM + 10% dialyzed FBS
  AUC of viability dose-response curve: 444
P12-Ichikawa; RPMI 5 mM glucose + 10% FBS
  AUC of viability dose-response curve: 451
P12-Ichikawa; [1]
  AUC of viability dose-response curve: 466
NOMO1; HPLM + 10% dialyzed FBS
  AUC of viability dose-response curve: 454
NOMO1; RPMI 5 mM glucose + 10% FBS
  AUC of viability dose-response curve: 454
NOMO1; [1]
  AUC of viability dose-response curve: 458
SEM cells; HPLM + 10% dialyzed FBS
  AUC of viability dose-response curve: 451
SEM cells; RPMI 5 mM glucose + 10% FBS
  AUC of viability dose-response curve: 425
SEM cells; [1]
  AUC of viability dose-response curve: 407

## CC1CCC(C(=O)N(c2cc(C#CC(C)(C)C)sc2C(=O)O)C2CCC(O)CC2)CC1 (stereo unspecified)
P12-Ichikawa; HPLM + 10% dialyzed FBS
  AUC of viability dose-response curve: 419
P12-Ichikawa; RPMI 5 mM glucose + 10% FBS
  AUC of viability dose-response curve: 394
P12-Ichikawa; [1]
  AUC of viability dose-response curve: 375
NOMO1; HPLM + 10% dialyzed FBS
  AUC of viability dose-response curve: 410
NOMO1; RPMI 5 mM glucose + 10% FBS
  AUC of viability dose-response curve: 408
NOMO1; [1]
  AUC of viability dose-response curve: 411
SEM cells; HPLM + 10% dialyzed FBS
  AUC of viability dose-response curve: 426
SEM cells; RPMI 5 mM glucose + 10% FBS
  AUC of viability dose-response curve: 430
SEM cells; [1]
  AUC of viability dose-response curve: 400

## O=C(OC)[C@]12CC[C@@]3(C)[C@]4(C)CC[C@H]5[C@@](C)(C)C(=O)C(=C[C@]5(C)C4=CC(=O)[C@@H]3[C@@H]2C[C@](C)(C)CC1)C#N
P12-Ichikawa; HPLM + 10% dialyzed FBS
  AUC of viability dose-response curve: 407
P12-Ichikawa; RPMI 5 mM glucose + 10% FBS
  AUC of viability dose-response curve: 404
P12-Ichikawa; [1]
  AUC of viability dose-response curve: 396
NOMO1; HPLM + 10% dialyzed FBS
  AUC of viability dose-response curve: 408
NOMO1; RPMI 5 mM glucose + 10% FBS
  AUC of viability dose-response curve: 372
NOMO1; [1]
  AUC of viability dose-response curve: 381
SEM cells; HPLM + 10% dialyzed FBS
  AUC of viability dose-response curve: 393
SEM cells; RPMI 5 mM glucose + 10% FBS
  AUC of viability dose-response curve: 408
SEM cells; [1]
  AUC of viability dose-response curve: 370

## C[C@](O)(COc1ccc(C#N)cc1)C(=O)Nc1ccc(C#N)c(C(F)(F)F)c1
P12-Ichikawa; HPLM + 10% dialyzed FBS
  AUC of viability dose-response curve: 445
P12-Ichikawa; RPMI 5 mM glucose + 10% FBS
  AUC of viability dose-response curve: 413
P12-Ichikawa; [1]
  AUC of viability dose-response curve: 382
NOMO1; HPLM + 10% dialyzed FBS
  AUC of viability dose-response curve: 422
NOMO1; RPMI 5 mM glucose + 10% FBS
  AUC of viability dose-response curve: 435
NOMO1; [1]
  AUC of viability dose-response curve: 433
SEM cells; HPLM + 10% dialyzed FBS
  AUC of viability dose-response curve: 388
SEM cells; RPMI 5 mM glucose + 10% FBS
  AUC of viability dose-response curve: 396
SEM cells; [1]
  AUC of viability dose-response curve: 400

## CC[C@H](CC[C@@H](C)[C@H]1CC[C@H]2[C@@H]3C\C=C/4C[C@@H](O)CC[C@]4(C)[C@H]3CC[C@]12C)C(C)C
P12-Ichikawa; HPLM + 10% dialyzed FBS
  AUC of viability dose-response curve: 448
P12-Ichikawa; RPMI 5 mM glucose + 10% FBS
  AUC of viability dose-response curve: 453
P12-Ichikawa; [1]
  AUC of viability dose-response curve: 446
NOMO1; HPLM + 10% dialyzed FBS
  AUC of viability dose-response curve: 420
NOMO1; RPMI 5 mM glucose + 10% FBS
  AUC of viability dose-response curve: 449
NOMO1; [1]
  AUC of viability dose-response curve: 431
SEM cells; HPLM + 10% dialyzed FBS
  AUC of viability dose-response curve: 452
SEM cells; RPMI 5 mM glucose + 10% FBS
  AUC of viability dose-response curve: 469
SEM cells; [1]
  AUC of viability dose-response curve: 467

## Cc1c(CN2CCN(C(=O)[C@H](C)O)CC2)sc2c(N3CCOCC3)nc(-c3cnc(N)nc3)nc12
P12-Ichikawa; HPLM + 10% dialyzed FBS
  AUC of viability dose-response curve: 401
P12-Ichikawa; RPMI 5 mM glucose + 10% FBS
  AUC of viability dose-response curve: 338
P12-Ichikawa; [1]
  AUC of viability dose-response curve: 345
NOMO1; HPLM + 10% dialyzed FBS
  AUC of viability dose-response curve: 318
NOMO1; RPMI 5 mM glucose + 10% FBS
  AUC of viability dose-response curve: 352
NOMO1; [1]
  AUC of viability dose-response curve: 308
SEM cells; HPLM + 10% dialyzed FBS
  AUC of viability dose-response curve: 285
SEM cells; RPMI 5 mM glucose + 10% FBS
  AUC of viability dose-response curve: 304
SEM cells; [1]
  AUC of viability dose-response curve: 284

## Cc1nc(NC(=O)N2CCC[C@H]2C(N)=O)sc1-c1ccnc(C(C)(C)C(F)(F)F)c1
P12-Ichikawa; HPLM + 10% dialyzed FBS
  AUC of viability dose-response curve: 424
P12-Ichikawa; RPMI 5 mM glucose + 10% FBS
  AUC of viability dose-response curve: 386
P12-Ichikawa; [1]
  AUC of viability dose-response curve: 399
SEM cells; HPLM + 10% dialyzed FBS
  AUC of viability dose-response curve: 384
SEM cells; RPMI 5 mM glucose + 10% FBS
  AUC of viability dose-response curve: 431
SEM cells; [1]
  AUC of viability dose-response curve: 400

## COc1nccc(-c2c(-c3ccc(F)cc3)ncn2C2CCNCC2)n1
P12-Ichikawa; HPLM + 10% dialyzed FBS
  AUC of viability dose-response curve: 452
P12-Ichikawa; RPMI 5 mM glucose + 10% FBS
  AUC of viability dose-response curve: 455
P12-Ichikawa; [1]
  AUC of viability dose-response curve: 453
SEM cells; HPLM + 10% dialyzed FBS
  AUC of viability dose-response curve: 460
SEM cells; RPMI 5 mM glucose + 10% FBS
  AUC of viability dose-response curve: 375
SEM cells; [1]
  AUC of viability dose-response curve: 454

## CC(C)OC(=O)OCOP(=O)(CO[C@H](C)Cn1cnc2c(N)ncnc21)OCOC(=O)OC(C)C.O=C(O)C=CC(=O)O
NOMO1; HPLM + 10% dialyzed FBS
  AUC of viability dose-response curve: 446
NOMO1; RPMI 5 mM glucose + 10% FBS
  AUC of viability dose-response curve: 456
NOMO1; [1]
  AUC of viability dose-response curve: 448
